Test results reported in PubChem BioAssay AID1645865 (Buhrlage Lab, Dana-Farber Cancer Institute and Novartis …, 2021).
Active and inactive are the calls of the source.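 How the source made its calls: active means maximal inhibition of the USP30 enzyme reaching 30% or more across the dose series; inactive means the rest.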

biological target: Ubiquitin carboxyl-terminal hydrolase 30 (Homo sapiens) (UniProt Q70CQ3); experiment: ubiquitin-specific protease 30 DUB inhibitors, concentration-effect, biochemical, validation of primary actives (AID 1645865); settings: purified USP30, Ub-rhodamine cleavage, fluorescence, 2 h
Sequence (Q70CQ3 whole entry, looked up): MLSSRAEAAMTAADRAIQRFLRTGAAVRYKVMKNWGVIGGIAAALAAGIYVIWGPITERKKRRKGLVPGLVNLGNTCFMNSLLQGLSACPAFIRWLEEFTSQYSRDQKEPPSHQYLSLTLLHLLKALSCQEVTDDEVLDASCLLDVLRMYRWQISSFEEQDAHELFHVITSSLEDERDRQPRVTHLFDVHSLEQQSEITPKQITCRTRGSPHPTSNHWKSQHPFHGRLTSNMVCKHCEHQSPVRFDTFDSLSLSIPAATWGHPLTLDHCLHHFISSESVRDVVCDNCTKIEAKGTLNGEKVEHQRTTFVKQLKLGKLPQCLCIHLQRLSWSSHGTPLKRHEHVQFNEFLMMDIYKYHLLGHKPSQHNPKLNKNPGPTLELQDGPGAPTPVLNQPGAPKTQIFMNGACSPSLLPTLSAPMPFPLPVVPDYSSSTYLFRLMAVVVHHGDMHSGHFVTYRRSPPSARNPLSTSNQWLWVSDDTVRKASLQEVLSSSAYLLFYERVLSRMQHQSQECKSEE

IC50	SMILES
> 50 µM (inactive)	Cc1nc(-c2ccccn2)sc1C(=O)Nc1ccc(C#N)cc1
23.4 µM	Cc1cccc(S(=O)(=O)N2CCc3nc4ccccc4n3CC2)c1
> 50 µM (inactive)	CC(c1ccccc1)c1nc(-c2ccc(=O)[nH]c2)no1 (stereo unspecified)
> 50 µM (inactive)	Cn1cc2cccc(NC(=O)c3ccc(F)cc3)c2n1
25.4 µM	COc1cc(=O)c(C(=O)Nc2ccc(C#N)cc2)nn1-c1cccc(F)c1
> 50 µM (inactive)	Cc1ncc(CO)c2c1Oc1nc(-c3cccc(Cl)c3)nc(SCC(=O)N3CCCCC3)c1C2
10.2 µM	COc1ccc(CN(C(=O)c2cc(-c3ccc(C)cc3)on2)C2CCS(=O)(=O)C2)cc1 (stereo unspecified)
25.8 µM	CCOc1ccc(C(=O)Cn2c(=O)n(CC3CCCO3)c(=O)c3cc(OC)c(OC)cc32)cc1Cl (stereo unspecified)
> 50 µM (inactive)	COC(=O)c1cc2c(ccn2C)n1CC(=O)NC1CCCC1
4.62 µM	Cc1cccc(NC(=O)Nc2ccc(C)n(CC(=O)Nc3ccccc3)c2=O)c1
35.5 µM	CCc1ccc2[nH]c3c(c(=O)c2c1)CN(CC(=O)NCc1ccc2c(c1)OCO2)CC3
3.65 µM	CC(Nc1ncnc2c1sc1nc(N3CCOCC3)c3c(c12)CCC3)c1ccccc1 (stereo unspecified)
> 50 µM (inactive)	Cc1cc(C(=O)COC(=O)c2ccc[nH]c2=O)c(C)n1-c1ccc2c(c1)OCO2
36.4 µM	O=C(CN1C(=O)C2CCCC2=Nc2ccccc21)Nc1ccc(F)cc1F (stereo unspecified)
> 50 µM (inactive)	Cc1nn(-c2nc3ccccc3[nH]2)c2c1C(c1cccs1)CC(=O)N2 (stereo unspecified)
> 50 µM (inactive)	O=C(CNS(=O)(=O)c1ccc(F)cc1)N1CCCC(c2nnc3ccccn23)C1 (stereo unspecified)
> 50 µM (inactive)	CCCCc1nc2sc3c(SCC(=O)NCc4ccccc4)ncnc3c2c2c1CCC2
2.28 µM	CC(C)(C)C(=O)Nc1ccc(C(=O)Nc2cccc(-c3nnc(-c4ccccc4)o3)c2)cc1
> 50 µM (inactive)	COc1ccc(CC(=O)Nc2cccc(-c3nc4ncccc4o3)c2)cc1OC
0.156 µM	O=[N+]([O-])c1ccc(N2CCN(c3ncnc4c3[nH]c3ccc(F)cc34)CC2)cc1
> 50 µM (inactive)	O=C(Nc1nc2c(s1)COCC2)c1cc(-c2ccco2)[nH]n1

IC50	SMILES
> 50 µM (inactive)	O=C(Nc1ccc2c(c1)OCCO2)C1CCN(C(=O)c2ccccc2)CC1
29.8 µM	Cc1cccc(-c2noc(CCn3c(=O)[nH]c4ccccc4c3=O)n2)c1
18.1 µM	CCC(=O)Nc1ccccc1-c1nc2ccccc2n(CC(=O)Nc2cc(OC)ccc2OC)c1=O
32.2 µM	COc1ccc(-c2cc(C(C)=O)c(C)n2CCC(=O)Nc2ccc(OC)cc2OC)cc1
23.4 µM	Cn1nc(-c2ccccc2)c(COC(=O)c2ccc([N+](=O)[O-])cc2)c1Cl
48.2 µM	Cc1oc2ccc(NS(=O)(=O)c3ccc(F)cc3)cc2c1C(=O)OCc1ccccc1
37.5 µM	Cn1c(=O)[nH]c(=O)c2c1nc1n(CCc3ccccc3)c(-c3ccccc3)cn21
5.18 µM	COc1cccc(NC(=O)CSc2nnc(-c3cc4cccc(OC)c4o3)n2C)c1
16.6 µM	C=C1CCC2[C@](C)(CCC[C@]2(C)C(=O)OC)[C@H]1CCc1ccoc1C[N+](C)(C)Cc1ccccc1 (stereo partly specified)
> 50 µM (inactive)	CC(C)N1CC2CN(Cc3ccc(Cl)cc3)CCN2Cc2ccccc21 (stereo unspecified)
3.39 µM	CCOc1ccc(NC(=O)Cn2c(=O)n(CCC(=O)NCc3ccccc3OC)c(=O)c3ccccc32)cc1
> 50 µM (inactive)	O=C(COc1nsnc1N1CCOCC1)Nc1ccccc1F
11.3 µM	CCc1cccc2c(C(=O)COc3ccc(C#N)cc3)c[nH]c12
> 50 µM (inactive)	COc1cc(Cl)ccc1Oc1ncnc2sc(C)c(C)c12
> 50 µM (inactive)	O=C(Cn1c(=O)n(Cc2ccccc2)c(=O)c2ncccc21)NCc1ccccc1Cl
> 50 µM (inactive)	COc1cc2c(cc1OC)-c1cc(NCc3cc(OC)c(OC)c(OC)c3)nc(=O)n1CC2
> 50 µM (inactive)	c1ccc2c(Cc3nc(-c4ccncc4)no3)cccc2c1
> 50 µM (inactive)	COCCCN1CCS(=O)(=O)c2c(Cl)c(F)nc(Oc3ccccc3F)c21
2.18 µM	CCn1cc(-c2nc(-c3ccccc3)no2)c(=O)c2cc(F)ccc21
22.8 µM	Cc1ccnc(NC(=O)c2ccn(COc3ccc(Cl)cc3)n2)c1

The remaining lines, values behind:

SMILES	IC50
CCOC(=O)c1ccc(NC(=O)Cn2c(=O)n(CC(=O)NCCc3ccc(OC)c(OC)c3)c(=O)c3sccc32)cc1	1.57 µM
COc1ccccc1OCC(=O)Nc1ccc2c(c1)CCC(=O)N2Cc1ccccc1	> 50 µM (inactive)
CC1(C(=O)NC2CCCC2)Cn2c(cc3ccccc32)C(=O)N1c1ccc(F)cc1 (stereo unspecified)	> 50 µM (inactive)
O=C(Nc1nc2ccccc2s1)c1ccc2c(c1)C(=O)N(Cc1cccnc1)C2=O	2.19 µM
COc1cc(OC)cc(-c2nc(-c3cn(-c4cccc(F)c4)nn3)no2)c1	0.143 µM
CCOC(=O)c1cnc(C(F)(F)F)nc1Sc1n[nH]c(-c2cccs2)n1	> 50 µM (inactive)
Cc1ccc2c(=O)c3c([nH]c2c1C)CCN(CC(=O)NCc1ccccc1)C3	> 50 µM (inactive)
Cc1ccc(NC(=O)c2sc(=S)n(CCc3ccccc3)c2N)cc1	1.74 µM
Cc1nc(-c2ccc(-n3cc(C(=O)Nc4cccc(F)c4)c(C)n3)cc2)no1	47.7 µM
Cc1nc2sc(C(=O)Nc3ccccc3Br)c(N)c2c(C)c1C	1.2 µM
CSc1nccc(-c2ccc(F)cc2)c1C#N	36.3 µM
CCOc1ccccc1C(=O)Nc1ccc2c(c1)Sc1ncccc1C(=O)N2C	> 50 µM (inactive)
COc1ccccc1-c1ccc(SCC(=O)Nc2ccc3c(c2)OCCO3)nn1	> 50 µM (inactive)
CC1CCN(C(=O)c2cn(-c3cc(N4CCC(C)CC4)ncn3)cn2)CC1	> 50 µM (inactive)
Cc1cccc(NC(=O)Cn2c(=O)n(Cc3ccc(F)cc3)c(=O)c3sccc32)c1	2.74 µM
O=C(Nc1cc(-c2cccnc2)no1)c1ccc(F)c(F)c1	20 µM
Cc1cccc(NC(=O)Cn2c(N3CCOCC3)nc3cc(C)n(C)c3c2=O)c1	20.9 µM
CSc1cccc(NC(=O)COc2cccc3ccccc23)c1	1.46 µM
O=C1CC(c2ccco2)Cc2[nH]c(=O)c(-c3nc(-c4ccc(Cl)cc4)cs3)cc21 (stereo unspecified)	> 50 µM (inactive)
CO[C@H]1[C@@H](O)[C@H](C)O[C@H](O[C@H]2[C@H](Oc3cccc4c(O)c5c(=O)oc6ccc(C)c7c(=O)oc(c34)c5c67)O[C@H](C)[C@H](O)[C@@H]2O)[C@@H]1O	> 50 µM (inactive)
N#Cc1ccccc1Cn1c(=O)n(Cc2ccco2)c(=O)c2ccccc21	> 50 µM (inactive)
COc1ccc(NC(=O)COc2ccc3ccc(=O)oc3c2)cc1	34.8 µM
O=C1c2ccccc2-n2c1nc1ccccc1c2=O	> 50 µM (inactive)
COc1ccc(NC(=O)c2nnn(-c3cccc(C)c3)c2C)cc1	> 50 µM (inactive)
CC(=O)CN1CC2(CCN(Cc3ccc(F)cc3)CC2)COc2ccccc2S1(=O)=O	> 50 µM (inactive)
Cc1sc(NC(=O)CN2CCc3ccccc3C2)nc1-c1ccc2c(c1)CCN2C(=O)C1CCCCC1	> 50 µM (inactive)
O=C(Nc1cccc(C(F)(F)F)c1)c1cc2c(s1)-c1ccccc1OC2	2.13 µM
CCCCCC(=O)N1c2ccccc2NC2=C(C(=O)CC(c3ccc(C(C)(C)C)cc3)C2)C1c1ccncc1 (stereo unspecified)	2.28 µM

SMILES	IC50
O=C(Cc1cccnc1)Nc1ccc(N2CCN(C3CCCCC3)C2=O)nc1	> 50 µM (inactive)
O=C(CN1C(=O)NC2(CCCCC2)C1=O)Nc1ccc([N+](=O)[O-])cc1	33.5 µM
COc1ccc(OC)c(NC(=O)CNC(=O)c2cc3c(OC)cccc3[nH]2)c1	> 50 µM (inactive)
COc1ccc(-n2nnc(C(=O)Nc3ccccc3)c2N)cc1	> 50 µM (inactive)
COc1cccc(C(=O)NCC(=O)Nc2nc3ccccc3[nH]2)c1	34.3 µM
O=C(NCCN1CCCC1)C1CCN(c2cnc(N3CCCCC3)nc2)CC1	> 50 µM (inactive)
CCC(C(=O)NCc1ccncc1)N(c1cccc(Cl)c1)S(C)(=O)=O (stereo unspecified)	> 50 µM (inactive)
CC(=O)Nc1ccc(S(=O)(=O)NCc2ccc(C(=O)NCc3ccc(C)cc3)cc2)cc1	26.5 µM
Cc1c(C(=O)Nc2ccc(-c3nnc4n3CCCCC4)cc2)oc2c1ccc1ccccc12	> 50 µM (inactive)
Cc1ccccc1-c1nnc(-c2ccc(C(=O)NCc3ccccc3F)cc2)o1	3.32 µM
COc1ccccc1C(=O)N1CCc2[nH]c3ccc(F)cc3c2C1	> 50 µM (inactive)
Cc1ccc(NC(=O)c2cc(=O)n(C)c3c2c(=O)n(C)c(=O)n3C)c(C)c1	> 50 µM (inactive)
Cc1ccc2[nH]c(=O)c(-c3nc4ccc(C)cn4c3NCc3ccc(F)cc3)cc2c1	2.1 µM
COc1ccc(C(C)NC(=O)c2cnc(-c3ccccc3)nc2-c2ccncc2)cc1 (stereo unspecified)	> 50 µM (inactive)
COc1ccccc1CNC(=O)Nc1cccc2ccccc12	25.9 µM
O=C(NCc1ccc(Cl)cc1)Nc1cccc2ccccc12	25.3 µM
Cc1noc(NS(=O)(=O)c2ccc(NC(=O)CSc3ccc4ccccc4c3)cc2)c1C	> 50 µM (inactive)
COc1ccc(C(=O)Nc2nc3n(n2)C(c2ccccc2)CC(=O)N3)cc1 (stereo unspecified)	10.7 µM
CCn1cnc2ccc(C(=O)NC3CC3)cc2c1=O	> 50 µM (inactive)
COc1ccc(-c2nc(CNC(=O)COc3ccc(C)cc3)cs2)cc1	36.3 µM
CC(C)=CCCC1(C)OC2=C(C(=O)c3cc(O)cc(O)c3C2=O)[C@H]2C=C(C)CC[C@H]21 (stereo partly specified)	> 50 µM (inactive)
O=C(NCC(c1cccnc1)N1CCc2ccccc2C1)C(=O)Nc1ccc2c(c1)OCO2 (stereo unspecified)	33.3 µM
COc1ccc(-n2c(=O)c(CCC(=O)O)nc3ccccc32)cc1	> 50 µM (inactive)
N#C/C(=C\c1ccc(-c2cc(Cl)ccc2Cl)o1)c1nnc2n1CCCCC2	> 50 µM (inactive)
Cc1ccccc1NC(=O)Nc1ccccc1OCc1cc(=O)n2cccc(C)c2n1	0.687 µM
Cc1ccccc1C(=O)Nc1ccc(Cc2ccc(NC(=O)c3ccccc3C)c(O)c2)cc1O	> 50 µM (inactive)
COc1ccc(-c2cc(-c3ccc(F)cc3)[nH]c(=O)c2C#N)cc1	22.1 µM
